According to US9980943B2, “Methods of treating muscular dystrophy” (BOARD OF REGENTS OF THE NEVADA SYSTEM OF HIGHER EDUCATION, …, priority 2013, dated 2018):

Experiments:
Format in all cases: cell-based, mouse
[1] = tested on: α7 integrin (LacZ reporter in α7βgal+/− myoblasts); experiment: Myoblast α7+/LacZ integrin FDG assay (Burkin assay in myoblasts, 96-well); conditions: α7+/LacZ myoblasts, 96-well
[2] = tested on: α7 integrin (LacZ reporter in α7+/LacZ myotubes); experiment: Myotube α7 integrin FDG assay (Burkin assay in myotubes, 96-well); conditions: myotubes
[3] = tested on: β-galactosidase in CMV-LacZ C2C12 myotubes; experiment: CMV-LacZ secondary screen in C2C12 myotubes (β-Gal stabilizing assay); conditions: for CMV-LACZ in Myotubes, signal relative to DMSO: C2C12 CMV-LacZ myotubes, fold relative to DMSO; for CMV-LACZ in Myotubes (β-galactosidase activity relative to DMSO): CMV-LacZ C2C12 myotubes, 96-well format
Outline: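 Stable CMV-LacZ C2C12 clone; six-point curve 0.5–40 μM; duplicates.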

SMILES | Burkin Assay in Myoblasts, value relative to DMSO ([1]; 0.5 uM) | Burkin Assay in Myoblasts, value relative to DMSO ([1]; 1 uM) | Burkin Assay in Myoblasts, value relative to DMSO ([1]; 5 uM) | Burkin Assay in Myoblasts, value relative to DMSO ([1]; 10 uM) | Burkin Assay in Myoblasts, value relative to DMSO ([1]; 20 uM) | Burkin Assay in Myoblasts, value relative to DMSO ([1]; 40 uM) | Burkin Assay in Myotubes (signal relative to DMSO) ([2]; 0.5 uM) | Burkin Assay in Myotubes (signal relative to DMSO) ([2]; 1 uM) | Burkin Assay in Myotubes (signal relative to DMSO) ([2]; 5 uM) | Burkin Assay in Myotubes (signal relative to DMSO) ([2]; 10 uM) | Burkin Assay in Myotubes (signal relative to DMSO) ([2]; 20 uM) | Burkin Assay in Myotubes (signal relative to DMSO) ([2]; 40 uM) | CMV-LACZ in Myotubes, signal relative to DMSO ([3]; 5 uM) | CMV-LACZ in Myotubes, signal relative to DMSO ([3]; 10 uM) | CMV-LACZ in Myotubes, signal relative to DMSO ([3]; 20 uM) | CMV-LACZ in Myotubes, signal relative to DMSO ([3]; 40 uM) | further results
CCOc1ccc2ccccc2c1C1NC(=O)N(C)C(C)=C1C(=O)OCCOC (stereo not shown) [MLS001167424-01] | 0.9904 | 1.428 | 0.8924 | 0.907 | 0.7995 | 0.8164 | 1.046 | 0.9596 | 1.365 | 0.7848 | 1.0277 | 0.9779 | 0.7491 | 0.9718 | 1.157 | 0.9925 | –
N/C(=N\OC(=O)COc1cc(Cl)c(Cl)cc1Cl)c1ccncc1 [MLS000625140-01] | 0.8839 | 0.8709 | 0.8748 | 0.7833 | 0.7589 | 0.6829 | 0.8484 | 0.8454 | 1.114 | 0.9131 | 0.6793 | 0.6514 | – | – | – | – | CMV-LACZ in Myotubes (β-galactosidase activity relative to DMSO) ([3]; 5 uM): 0.9172; CMV-LACZ in Myotubes (β-galactosidase activity relative to DMSO) ([3]; 10 uM): 1.036; CMV-LACZ in Myotubes (β-galactosidase activity relative to DMSO) ([3]; 20 uM): 1.107; CMV-LACZ in Myotubes (β-galactosidase activity relative to DMSO) ([3]; 40 uM): 1.016
Cc1cccc(NC(=O)c2cc3ccccc3oc2=O)c1 [MLS001209245-01] | – | – | – | – | – | – | – | – | – | – | – | – | 0.8568 | 0.9675 | 0.9662 | 0.9952 | Burkin Assay in Myoblasts, signal relative to DMSO ([1]; 0.5 uM): 1.039; Burkin Assay in Myoblasts, signal relative to DMSO ([1]; 1 uM): 1.132; Burkin Assay in Myoblasts, signal relative to DMSO ([1]; 5 uM): 1.021; Burkin Assay in Myoblasts, signal relative to DMSO ([1]; 10 uM): 1.071; Burkin Assay in Myoblasts, signal relative to DMSO ([1]; 20 uM): 1.1; Burkin Assay in Myoblasts, signal relative to DMSO ([1]; 40 uM): 1.039; Burkin Assay in Myotubes, α7 integrin LacZ reporter signal relative to DMSO ([2]; 0.5 uM): 1.113; Burkin Assay in Myotubes, α7 integrin LacZ reporter signal relative to DMSO ([2]; 1 uM): 1.245; Burkin Assay in Myotubes, α7 integrin LacZ reporter signal relative to DMSO ([2]; 5 uM): 0.9667; Burkin Assay in Myotubes, α7 integrin LacZ reporter signal relative to DMSO ([2]; 10 uM): 0.9979; Burkin Assay in Myotubes, α7 integrin LacZ reporter signal relative to DMSO ([2]; 20 uM): 0.6876; Burkin Assay in Myotubes, α7 integrin LacZ reporter signal relative to DMSO ([2]; 40 uM): 0.5729
Cc1cc(NC(=O)CN2C(=O)/C(=C/c3ccccc3F)SC2=S)no1 [MLS001219159-01] | 0.9597 | 1.059 | 0.9161 | 0.9644 | 0.9199 | 0.952 | 0.861 | 0.9965 | 0.807 | 1.064 | 0.9474 | 0.9507 | 0.9354 | 0.9316 | 0.9636 | 1.023 | –
COc1ccccc1CNS(=O)(=O)c1ccc(Cl)s1 [MLS001175449-01] | 1.0562 | 1.036 | 1.045 | 0.9949 | 1.066 | 0.7564 | 1.1188 | 1.016 | 1.156 | 0.9366 | 1.151 | 0.8041 | 0.8534 | 0.9034 | 0.889 | 0.8671 | –
CC(C)(CC(=O)O)CC(=O)N1CCCN(c2nccc(C(F)(F)F)n2)CC1 [MLS001181671-01] | 1.052 | 0.965 | 0.8759 | 0.8638 | 0.8113 | 0.891 | 1.071 | 0.9095 | 1.337 | 1.22 | 0.9854 | 0.9878 | 0.8803 | 0.9201 | 1.03 | 0.9377 | –
Oc1c(Br)cc(Br)cc1CNc1cccc2cccnc12 [MLS001183429-01] | – | – | – | – | – | – | – | – | – | – | – | – | 0.8436 | 0.944 | 0.9105 | 0.5809 | Burkin Assay in Myoblasts, signal relative to DMSO ([1]; 0.5 uM): 0.7592; Burkin Assay in Myoblasts, signal relative to DMSO ([1]; 1 uM): 0.6652; Burkin Assay in Myoblasts, signal relative to DMSO ([1]; 5 uM): 0.7821; Burkin Assay in Myoblasts, signal relative to DMSO ([1]; 10 uM): 0.7373; Burkin Assay in Myoblasts, signal relative to DMSO ([1]; 20 uM): 0.5666; Burkin Assay in Myoblasts, signal relative to DMSO ([1]; 40 uM): 0.3329; Burkin Assay in Myotubes, α7 integrin LacZ reporter signal relative to DMSO ([2]; 0.5 uM): 0.8042; Burkin Assay in Myotubes, α7 integrin LacZ reporter signal relative to DMSO ([2]; 1 uM): 0.823; Burkin Assay in Myotubes, α7 integrin LacZ reporter signal relative to DMSO ([2]; 5 uM): 0.8557; Burkin Assay in Myotubes, α7 integrin LacZ reporter signal relative to DMSO ([2]; 10 uM): 0.733; Burkin Assay in Myotubes, α7 integrin LacZ reporter signal relative to DMSO ([2]; 20 uM): 0.4076; Burkin Assay in Myotubes, α7 integrin LacZ reporter signal relative to DMSO ([2]; 40 uM): 0.2629
